According to ChEMBL document CHEMBL2010731, “Discovery of P2X3 selective antagonists for the treatment of chronic pain” (Bioorg Med Chem Lett, 2012):
Values belong to the compound of their own block, whether it stands above or below them.

Experiments:
[1] = Intrinsic clearance in human liver microsomes at 1 uM; type: ADME, Microsome; settings: read-out: CLH
[2] = Intrinsic clearance in rat liver microsomes; type: ADME, Microsome; settings: read-out: CLH
[3] = Ratio of drug level in brain to plasma in Sprague-Dawley rat; type: ADME; settings: read-out: BPR
[4] = Cmax in rat at […], sc; type: ADME, organism-based; design: dose 5.9 umol/kg, route subcutaneous; settings: in vivo
[5] = AUC in rat at […], iv; type: ADME, organism-based; settings: plasma
[6] = AUC in rat at […], sc; type: ADME, organism-based; settings: plasma
[7] = Half life in rat at […], iv; type: ADME, organism-based; settings: in vivo
[8] = Clearance in rat at […], iv; type: ADME, organism-based; settings: in vivo
[9] = Apparent permeability from apical to basal side of human Caco2 cells at 10 uM; type: ADME, cell-based; settings: Caco-2
[10] = Lipophilicity, log D of the compound at pH 7.4; type: physicochemical; settings: buffer
[11] = Cmax in rat at 12 umol/kg, po; type: ADME, organism-based; design: dose 12 umol/kg, route oral; settings: in vivo
[12] = Cmax in rat at 58 umol/kg, po; type: ADME, organism-based; design: dose 58 umol/kg, route oral; settings: in vivo
[13] = AUC in rat at 11 umol/kg, iv; type: ADME, organism-based; settings: plasma
[14] = AUC in rat at 12 umol/kg, po; type: ADME, organism-based; settings: plasma
[15] = AUC in rat at 58 umol/kg, po; type: ADME, organism-based; settings: plasma
[16] = AUC in dog at […], iv; type: ADME, organism-based, Canis lupus familiaris; settings: plasma
[17] = Half life in rat at 11 umol/kg, iv; type: ADME, organism-based; settings: in vivo
[18] = Half life in dog at […], iv; type: ADME, organism-based, Canis lupus familiaris; settings: in vivo
[19] = Oral bioavailability in rat at 12 umol/kg; type: ADME, organism-based; settings: in vivo
[20] = Oral bioavailability in rat at 58 umol/kg; type: ADME, organism-based; settings: in vivo
[21] = Drug excretion in iv dosed rat faces; type: ADME, organism-based, Feces; settings: faeces, read-out: Drug excretion
[22] = Clearance in dog hepatocytes assessed per 10^6 cells; type: ADME, cell-based, Canis lupus familiaris, Hepatocyte; settings: read-out: CLH
[23] = Clearance in rat at 11 umol/kg, iv; type: ADME, organism-based; settings: in vivo
[24] = Clearance in dog at […], iv; type: ADME, organism-based, Canis lupus familiaris; settings: in vivo
[25] = Drug excretion in rat faces at high dose, iv; type: ADME, Feces; settings: faeces, read-out: Drug excretion

Structure (SMILES): CC(=O)N1CCN(c2nc(NC(C)(C)Cc3ccc(Cl)cc3)c3c(n2)C(=O)N(C(C)C)C3)CC1
microsomal CLint [2]: 83 µL/min/mg
Kp [3]: 0.02
Cmax [4]: 1000 nM
AUC [5]: 0.7 µM·h
AUC [6]: 2.8 µM·h
half-life [7]: 0.9 h
clearance [8]: 54 mL/min/kg

Structure (SMILES): CC(=O)N1CCN(c2nc(N[C@H](C)c3ccc(OC(F)(F)F)cc3)c3c(n2)C(=O)N(C(C)C)C3)CC1
microsomal CLint at 1 µM [1]: 22 µL/min/mg
Papp A→B at 10 µM [9]: 4.5 ×10⁻⁶ cm/s

Structure (SMILES): CC(=O)N1CCN(c2nc(NCc3ccc(C(F)(F)F)cc3)c3c(n2)C(=O)N(C(C)C)C3)CC1
microsomal CLint at 1 µM [1]: 31 µL/min/mg

Structure (SMILES): CC(=O)N1CCN(c2nc(NCc3ccc(OC(F)(F)F)cc3)c3c(n2)C(=O)N(C(C)C)C3)CC1
microsomal CLint at 1 µM [1]: 4 µL/min/mg
Papp A→B at 10 µM [9]: 2.9 ×10⁻⁶ cm/s

Structure (SMILES): CCOc1ccc([C@@H](C)Nc2nc(N3CCN(C(C)=O)CC3)nc3c2CN(C(C)C)C3=O)cc1F
microsomal CLint at 1 µM [1]: 17 µL/min/mg
Papp A→B at 10 µM [9]: 0.8 ×10⁻⁶ cm/s

Structure (SMILES): CC(C)N1Cc2c(NC(c3ccccc3)c3ccccc3)nc(N3CCOCC3)nc2C1=O
logD [10]: 4.3

Structure (SMILES): CCOc1ncc([C@@H](C)Nc2nc(N3CCN(C(C)=O)CC3)nc3c2CN(C(C)C)C3=O)cc1F
microsomal CLint at 1 µM [1]: 7 µL/min/mg

Structure (SMILES): CCOc1ccc([C@@H](CC)Nc2nc(N3CCN(C(C)=O)CC3)nc3c2CN(C(C)C)C3=O)cc1
microsomal CLint [2]: 58 µL/min/mg
microsomal CLint at 1 µM [1]: 10 µL/min/mg

Structure (SMILES): CCOc1ccc([C@H](Nc2nc(N3CCN(C(C)=O)CC3)nc3c2CN(C(C)C)C3=O)C(F)(F)F)cc1
microsomal CLint at 1 µM [1]: 5 µL/min/mg
Papp A→B at 10 µM [9]: 2 ×10⁻⁶ cm/s

The remaining lines, values ahead:

microsomal CLint at 1 µM [1]: 4 µL/min/mg
Structure (SMILES): COc1ccc([C@@H](C)Nc2nc(N3CCN(C(C)=O)CC3)nc3c2CN(C(C)C)C3=O)cc1

microsomal CLint at 1 µM [1]: 6 µL/min/mg
Structure (SMILES): CC(=O)N1CCN(c2nc(NCc3ccc(Cl)cc3)c3c(n2)C(=O)N(C(C)C)C3)CC1

microsomal CLint at 1 µM [1]: 16 µL/min/mg
Papp A→B at 10 µM [9]: 0.6 ×10⁻⁶ cm/s
Structure (SMILES): CC(=O)N1CCN(c2nc(NCc3cc4ccccc4cn3)c3c(n2)C(=O)N(C(C)C)C3)CC1

logD [10]: 3
microsomal CLint [2]: 17 µL/min/mg
microsomal CLint at 1 µM [1]: 10 µL/min/mg
Papp A→B at 10 µM [9]: 2.4 ×10⁻⁶ cm/s
Cmax [11]: 100 nM
Cmax [12]: 6900 nM
AUC [5]: 0.4 µM·h
AUC [13]: 8.05 µM·h
AUC [14]: 0.4 µM·h
AUC [15]: 1.8 µM·h
AUC [16]: 4.8 µM·h
half-life [7]: 0.5 h
half-life [17]: 2 h
half-life [18]: 14.5 h
bioavailability [19]: 16%
bioavailability [20]: 62%
dose excreted [21]: > 15%
hepatocyte CLint [22]: 2.5 µL/min/1e6 cells
clearance [8]: 88 mL/min/kg
clearance [23]: 22 mL/min/kg
clearance [24]: 8 mL/min/kg
dose excreted [25]: < 3%
Structure (SMILES): CCOc1ccc([C@@H](C)Nc2nc(N3CCN(C(C)=O)CC3)nc3c2CN(C(C)C)C3=O)cc1

microsomal CLint at 1 µM [1]: 19 µL/min/mg
Papp A→B at 10 µM [9]: 2.9 ×10⁻⁶ cm/s
Structure (SMILES): CC(=O)N1CCN(c2nc3c(c(N(C)Cc4cc5ccccc5cn4)n2)CN(C(C)C)C3=O)CC1

microsomal CLint at 1 µM [1]: 31 µL/min/mg
Structure (SMILES): COc1cc(OC(F)(F)F)ccc1CNc1nc(N2CCN(C(C)=O)CC2)nc2c1CN(C(C)C)C2=O

microsomal CLint at 1 µM [1]: 11 µL/min/mg
Papp A→B at 10 µM [9]: 0.1 ×10⁻⁶ cm/s
Structure (SMILES): CC(=O)N1CCN(c2nc(NCc3cnc4ccccc4c3)c3c(n2)C(=O)N(C(C)C)C3)CC1
